Measurements reported in publication PMC11945486, “TAS1R2/TAS1R3 Single-Nucleotide Polymorphisms Affect Sweet Taste Receptor Activation by Sweeteners: The SWEET Project” (Nutrients, 2025).
Like-named read-outs stand apart in the source and are kept apart here. No end group written: not given here.

Target: T1, human TAS1R2-WT/TAS1R3-A5T (Homo sapiens, UniProt Q7RTX0+Q8TE23, A5T)
T1 construct: expressed in transfected cells; host or cells: HEK293T stably expressing Gα16gust44
T1 sequence (Q8TE23 20-839): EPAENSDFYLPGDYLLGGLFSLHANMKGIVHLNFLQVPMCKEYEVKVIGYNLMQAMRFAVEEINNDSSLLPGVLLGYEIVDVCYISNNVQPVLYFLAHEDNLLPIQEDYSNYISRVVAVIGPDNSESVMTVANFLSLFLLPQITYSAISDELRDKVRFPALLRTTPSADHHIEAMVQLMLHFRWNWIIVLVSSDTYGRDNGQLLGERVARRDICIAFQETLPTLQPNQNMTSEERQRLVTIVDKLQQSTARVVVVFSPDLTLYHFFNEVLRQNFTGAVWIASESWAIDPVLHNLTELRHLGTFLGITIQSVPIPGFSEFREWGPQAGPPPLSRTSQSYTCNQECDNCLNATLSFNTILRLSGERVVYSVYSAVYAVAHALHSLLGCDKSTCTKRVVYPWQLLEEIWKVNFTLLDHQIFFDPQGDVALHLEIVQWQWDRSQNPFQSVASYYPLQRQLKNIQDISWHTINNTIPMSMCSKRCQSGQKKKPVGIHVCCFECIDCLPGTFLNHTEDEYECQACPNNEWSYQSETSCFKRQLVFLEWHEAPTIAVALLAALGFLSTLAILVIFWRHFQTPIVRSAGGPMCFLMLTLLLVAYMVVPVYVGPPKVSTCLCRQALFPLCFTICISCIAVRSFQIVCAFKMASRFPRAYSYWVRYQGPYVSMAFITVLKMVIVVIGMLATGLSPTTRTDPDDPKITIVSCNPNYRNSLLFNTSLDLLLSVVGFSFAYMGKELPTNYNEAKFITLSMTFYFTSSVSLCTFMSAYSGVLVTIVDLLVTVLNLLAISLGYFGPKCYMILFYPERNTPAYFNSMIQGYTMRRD
T1 sequence (Q7RTX0 21-852): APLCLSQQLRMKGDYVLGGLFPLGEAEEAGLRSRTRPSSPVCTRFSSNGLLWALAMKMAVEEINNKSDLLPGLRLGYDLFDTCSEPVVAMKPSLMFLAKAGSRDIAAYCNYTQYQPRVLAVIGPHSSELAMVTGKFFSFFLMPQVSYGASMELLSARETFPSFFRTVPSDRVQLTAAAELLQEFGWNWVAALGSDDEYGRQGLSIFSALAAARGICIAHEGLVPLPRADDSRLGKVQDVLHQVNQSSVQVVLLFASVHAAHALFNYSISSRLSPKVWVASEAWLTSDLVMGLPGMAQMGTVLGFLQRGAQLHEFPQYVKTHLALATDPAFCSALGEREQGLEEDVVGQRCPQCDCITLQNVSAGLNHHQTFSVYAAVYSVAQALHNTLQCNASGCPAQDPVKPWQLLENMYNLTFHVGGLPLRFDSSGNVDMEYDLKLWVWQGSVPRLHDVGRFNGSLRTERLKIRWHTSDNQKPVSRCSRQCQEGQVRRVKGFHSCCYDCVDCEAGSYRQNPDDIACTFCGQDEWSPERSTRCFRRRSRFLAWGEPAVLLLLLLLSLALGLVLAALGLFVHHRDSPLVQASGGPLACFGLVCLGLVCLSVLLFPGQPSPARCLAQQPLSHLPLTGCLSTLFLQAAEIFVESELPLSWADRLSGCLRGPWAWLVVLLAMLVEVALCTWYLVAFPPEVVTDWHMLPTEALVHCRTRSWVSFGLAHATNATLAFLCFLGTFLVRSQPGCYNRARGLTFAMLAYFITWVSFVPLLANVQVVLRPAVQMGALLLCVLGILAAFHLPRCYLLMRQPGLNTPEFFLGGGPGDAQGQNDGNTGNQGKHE
Experiment: Calcium mobilisation assay, TAS1R2-WT with TAS1R3 variant A5T
Format: cell-based
Details: for Max ΔF/F0: maximal signal amplitude
From the text: The coding sequences for TAS1R2 and TAS1R3 were commercially synthesised, and the human codon was optimised for expression in human cells. The coding sequences of human TAS1R2 and TAS1R3 were subcloned and inserted into the mammalian expression vectors pcDNA6/myc-HisA and pcDNA4/myc-HisA (Invitrogen; Thermo Fisher Scientific; Illkirch, France) between the EcoRI and NotI restriction sites, generating the plasmids pcDNA6-TAS1R2 and pcDNA4-TAS1R3, respectively. To increase protein expression in mammalian cells, an upstream start codon was used, which was a sequence called MAX, corresponding to the QBI SP163 element also described in pcDNA4-HisMax (Invitrogen; Thermo Fisher Scientific; Illkirch, France). To measure the expression level of the receptor by immunohistochemistry, we used the FLAG sequence ([…]) in the C-terminal position, which encodes the FLAG tag epitope. SNP variants of TAS1R2 and TAS1R3 were constructed based on […], respectively, using site-directed mutagenesis (Genewiz; Leipzig, Germany).
The HEK293T cells were kindly provided by Jay P. Slack (Givaudan Flavors Corporation; Cincinnati, OH, USA). HEK293T cells stably transfected with Gα16gust44 [43, 67] were seeded in poly-D-lysine-coated clear-bottom black 96-well plates (0.35 × 10^5 cells/well) in high-glucose DMEM supplemented with 2 mM GlutaMAX, 10% dialysed foetal bovine serum with penicillin/streptomycin and G418 (400 μg/mL) at 37 °C and 6.3% CO2 in a humidified atmosphere as previously reported. […] As a negative control, HEK293T cells were mock-transfected with the empty expression vector. After a further 24 h of incubation, the HEK293T cells were washed with C1 buffer (130 mM NaCl, 5 mM KCl, 10 mM HEPES pH 7.4 and 2 mM CaCl2). The 96-well plates containing the cells were then stimulated with sweet-tasting compounds. […] Different concentration ranges were tested depending on the sweet compound injected. The Ca^2+ changes were expressed as fractional changes in fluorescent light intensity: ΔF/F = (F − F0)/F0, where F was the fluorescent light intensity at each point, and F0 was the value of emitted fluorescent light prior to stimulus application. To calculate dose–response relationships, the changes in fluorescence upon stimulus application were averaged, mock-subtracted and baseline-corrected. The dose–response data obtained were adjusted using a 4-parameter logistic equation. The half-maximal effective concentrations (EC50 values) and maximal signal amplitudes were calculated using SigmaPlot software (version 15.0) (Systat Software; San Jose, CA, USA).
For in vitro calcium mobilisation assay performed on hTAS1R2-SNPs, hTAS1R3-SNPs and mTAS1R3-I60T, 6 to 7 concentrations were tested for each sweet compound, plus buffer alone. All concentration–receptor combinations were measured in duplicate, and each experiment was repeated at least 4 times (8 wells/concentration). Results were expressed for each concentration as ΔF/F mean ± SEM and represented as dose–response curves.

Compound	R1 = Variant EC50/WT EC50	Max ΔF/F0	EC50 (read-out: EC50) [µM]	EC50 (brazzein) [µg/mL]
CC1=CC(=O)NS(=O)(=O)O1 [Acesulfame K, acesulfame K]	1.4	0.31 ± 0.01	852 ± 34	–
O=S(=O)(O)NC1CCCCC1 [Cyclamate, cyclamate]	–	–	1790 ± 35	–
C[C@H](CC[C@@H](O[C@@H]1O[C@H](CO[C@@H]2O[C@H](CO)[C@@H](O)[C@H](O)[C@H]2O)[C@@H](O)[C@H](O)[C@H]1O[C@@H]1O[C@H](CO)[C@@H](O)[C@H](O)[C@H]1O)C(C)(C)O)[C@H]1CC[C@@]2(C)[C@@H]3CC=C4[C@@H](CC[C@H](O[C@@H]5O[C@H](CO[C@@H]6O[C@H](CO)[C@@H](O)[C@H](O)[C@H]6O)[C@@H](O)[C@H](O)[C@H]5O)C4(C)C)[C@]3(C)[C@H](O)C[C@]12C [Mogroside V, mogroside V]	1.0	0.97 ± 0.01	31.3 ± 1	–
OC[C@H]1O[C@H](O[C@]2(CCl)O[C@H](CCl)[C@@H](O)[C@@H]2O)[C@H](O)[C@@H](O)[C@H]1Cl [Sucralose]	1.2	0.63 ± 0.01	135 ± 5	–
brazzein (QDKCKKVYENYPVSKCQLANQCNYDCKLDKHARSGECFYDEKRNLQCICDYCEY; ends and bridges not checked; cysteine pairing not given here; UniProt P56552 1-54, looked up) [sweet-tasting protein obtained by recombinant production using the yeast Pichia pastoris]	1.0	1.04 ± 0.04	–	108.3 ± 11.5

Continued by falling EC50 (read-out: EC50), values first:

R1 = Variant EC50/WT EC50	Max ΔF/F0	EC50 (read-out: EC50) [µM]	EC50 (brazzein) [µg/mL]	Compound
1.5	1.24 ± 0.01	76.5 ± 13.1	–	COc1ccc(CCC(=O)c2c(O)cc(O[C@@H]3O[C@H](CO)[C@@H](O)[C@H](O)[C@H]3O[C@@H]3O[C@@H](C)[C@H](O)[C@@H](O)[C@H]3O)cc2O)cc1O [NHDC, neohesperidin dihydrochalcone]
0.7	1.06 ± 0.02	30.2 ± 1.5	–	C=C1C[C@@]23CC[C@H]4[C@@](C)(CCC[C@@]4(C)C(=O)O[C@@H]4O[C@H](CO)[C@@H](O)[C@H](O[C@@H]5O[C@H](CO)[C@@H](O)[C@H](O)[C@H]5O)[C@H]4O[C@@H]4O[C@H](CO)[C@@H](O)[C@H](O)[C@H]4O)[C@@H]2CC[C@]1(O[C@@H]1O[C@H](CO)[C@@H](O)[C@H](O[C@@H]2O[C@H](CO)[C@@H](O)[C@H](O)[C@H]2O)[C@H]1O[C@@H]1O[C@H](CO)[C@@H](O)[C@H](O)[C@H]1O)C3 [Rebaudioside M, rebaudioside M]
1.0	1.42 ± 0.23	13.2 ± 6.4	–	C=C(C)[C@@H]1CC=C(/C=N/O)CC1 [Perillartine, perillartine]
0.9	0.73 ± 0.04	9.7 ± 0.8	–	thaumatin
1.0	0.65 ± 0.01	1.18 ± 0.05	–	COC(=O)[C@H](Cc1ccccc1)NC(=O)[C@H](CC(=O)O)NCCC(C)(C)C [Neotame]
